Data on one compound can be found in publication PMC10555500, “Evaluation of the Antiproliferative Properties of CpRu Complexes Containing N-Methylated Triazaphosphaadamantane Derivatives” (Bioinorganic Chemistry and Applications, 2023).

Data set [1] has as its system MDA-MB-231 breast cancer cells. The experiment in a line: MTT cytotoxicity assay, MDA-MB-231 cells. Format: cell-based, human. As to conditions: 24 h incubation, MTT, average of at least three experiments (±SD). Here is the method:
(§1) The MDA-MB-231 and MCF-7 human breast cancer cells were purchased from ATCC. The MDA-MB-231 and MCF-7 cells were grown in Dulbecco's modified Eagles' medium (DMEM high glucose) (Capricorn Scientific) at 37°C in 5% CO2 supplemented with 10% fetal bovine serum (Capricorn Scientific). HDF cells were purchased from Merck and were grown in the fibroblast growth medium. All cells were adherent in monolayers and, upon confluence, were washed with phosphate buffer saline (PBS) and harvested by digestion with trypsin-EDTA 0.05% (v/v). The cells were suspended and transferred into new, sterile, culture flasks for maintenance or seeded in sterile test microplates for different assays. All cells were manipulated under aseptic conditions in a flow chamber.
(§2) The cells were adherent in monolayers and, upon confluence, were harvested by digestion with trypsin. The cytotoxicity of the complexes against the tumour cells was assessed using the colorimetric assay MTT […], which evaluates the metabolic activity of viable cells. This assay measures the conversion of yellow tetrazolium into purple formazan by an active mitochondrial dehydrogenase in living cells. For this purpose, the cells (10–20 × 10^3 in 200 μL of the medium) were seeded into 96-well plates and incubated in a 5% CO2 incubator at 37°C. The cells were settled for 24 h followed by the addition of a dilution series of the complexes in a medium (200 μL). The complexes were first solubilized in 100% DMSO, given a 10 mM stock solution, and then in a medium within the concentration range of 0.1–100 µM. […] After 24 h of incubation, the treatment solutions were removed by aspiration, and MTT solution (200 μL, 0.5 mg·mL^−1 in PBS) was added to each well. After 3 h at 37°C/5% CO2, the solution was removed, and the purple formazan crystals formed inside the cells were dissolved in DMSO (200 μL) by thorough shaking. The cellular viability was evaluated by measuring the absorbance at 570 nm by using a microplate spectrophotometer. The IC50 values were obtained by dose-response curves using the GraphPad Prism software (vs. 5).
The MDA-MB-231 and MCF-7 human breast cancer cells were purchased from ATCC. MDA-MB-231 and MCF-7 cells were grown in Dulbecco’s modified Eagles’s medium (DMEM high glucose) (Capricorn Scientific) at 37 °C in 5% CO2 supplemented with 10% fetal bovine serum (Capricorn Scientific). All cells were adherent in monolayers and, upon confluence, were washed with phosphate buffer saline (PBS) and harvested by digestion with Trypsin-EDTA 0.05% (v/v). The cells were suspended and transferred into new, sterile, culture flasks, for maintenance or seeded in sterile test microplates for different assays. All cells were manipulated under aseptic conditions in a flow chamber.
The cells were adherent in monolayers and, upon confluency, were harvested by digestion with trypsin. The cytotoxicity of the complexes against the tumour cells was assessed using the colorimetric assay MTT […], which evaluate the metabolic activity of viable cells. This assay measures the conversion of the yellow tetrazolium into purple formazan by an active mitochondrial dehydrogenase in living cells. For this purpose, cells (10-20 × 10^3 in 200 μL of medium) were seeded into 96-well plates and incubated in a 5% CO2 incubator at 37 °C. The cells were settled for 24 h followed by the addition of a dilution series of the complexes in medium (200 μL). The complexes were first solubilized in 100% DMSO, given a 10 mM stock solution, and then in medium within the concentration range of 0.1–100 µM. […] After 24 h of incubation, the treatment solutions were removed by aspiration, and MTT solution (200 μL, 0.5 mg·mL^-1 in PBS) was added to each well. After 3 h at 37 °C/5% CO2, the solution was removed, and the purple formazan crystals formed inside the cells were dissolved in DMSO (200 μL) by thorough shaking. […]
On the technique in general: Tetrazolium dyes change colour on reduction, which living cells bring about.

Data set [2] has as its system MCF-7 breast cancer cells. The experiment in a line: MTT cytotoxicity assay, MCF-7 cells. Type of data set: cell-based, human. Particulars: 24 h incubation, average of at least three experiments (±SD). The protocol:
as §1
The cells were adherent in monolayers and, upon confluence, were harvested by digestion with trypsin. The cytotoxicity of the complexes against the tumour cells was assessed using the colorimetric assay MTT […], which evaluates the metabolic activity of viable cells. This assay measures the conversion of yellow tetrazolium into purple formazan by an active mitochondrial dehydrogenase in living cells. For this purpose, the cells (10–20 × 10^3 in 200 μL of the medium) were seeded into 96-well plates and incubated in a 5% CO2 incubator at 37°C. The cells were settled for 24 h followed by the addition of a dilution series of the complexes in a medium (200 μL). The complexes were first solubilized in 100% DMSO, given a 10 mM stock solution, and then in a medium within the concentration range of 0.1–100 µM. […] The cellular viability was evaluated by measuring the absorbance at 570 nm by using a microplate spectrophotometer. […]
The cells were adherent in monolayers and, upon confluency, were harvested by digestion with trypsin. The cytotoxicity of the complexes against the tumour cells was assessed using the colorimetric assay MTT […], which evaluate the metabolic activity of viable cells. […]

For data set [3], the system named is normal human fibroblasts (HDF). In words: MTT cytotoxicity assay, normal human dermal fibroblasts. Type of data set: cell-based. Here is the method: as §1, §2
Data set [4] deals with MDA-MB-231 cells. In words: Complex uptake and subcellular distribution by ICP-MS. Format: cell-based, human. As to conditions: MDA-MB-231, ICP-MS 106Pd. The protocol: For the cellular uptake experiments, MDA-MB-231 cells (approx. 5·10^6 cells/5 mL medium) were exposed to the complexes at their respective IC50 concentrations and in two conditions (6 h and 24 h of incubation time) and then washed with ice-cold PBS and centrifuged to obtain a cellular pellet. The cytosol, membrane/particulate, cytoskeletal, and nuclear fractions were extracted using a FractionPREP™ cell fractionation system (BioVision, USA) and performed according to the manufacturer's protocol. The Ru (^101Ru) and Pd (^106Pd) contents in different fractions were measured by using Thermo X-Series Quadrupole ICP-MS (Thermo Scientific) after the digestion of the samples. Briefly, the samples were digested with ultrapure HNO3 (65%), H2O2, and H3PO4 in a closed pressurized microwave digestion unit (Mars5, CEM) with medium-pressure HP500 vessels and then diluted in ultrapure water to obtain 2.0% (v/v) nitric acid. The instrument was tuned using a multielement ICP-MS 71C standard solution (Inorganic Venture). Indium (115In) at […] was used as the internal standard.
For the cellular uptake experiments, MDA-MB-231 cells (approx. 5·10^6 cells / 5 mL medium) were exposed to the complexes at their respective IC50 concentrations and at two conditions (6 h and 24 h of incubation time)., then washed with ice-cold PBS and centrifuged to obtain a cellular pellet.[7] […]

Molecules are shown by their SMILES.

Broadly, the IC50 is the point on the concentration scale where inhibition reaches its midpoint.

Turning to `CN1CN2CN(C)C[P]([Ru+2]([P](c3ccccc3)(c3ccccc3)c3ccccc3)[P](c3ccccc3)(c3ccccc3)c3ccccc3)(C1)C2.O=S(=O)([O-])C(F)(F)F.[Cl][Pd][Cl].c1cc[cH-]c1` [Compound 11, [RuCp(PPh3)2-µ-dmoPTA-1κP-2κ^2N,N′-PdCl2](CF3SO3)], the IC50 in data set [1] turned out to be 1.1 ± 0.2 µM; in data set [2], 0.73 ± 0.11 µM; in data set [3] (24 h incubation, MTT, normal human fibroblasts), 1.59 ± 0.45 µM. Moreover, the “Fold less cytotoxic for fibroblasts (HDF) than for MCF-7 cells” value in data set [3] (selectivity HDF vs MCF-7) is on record as 2-3 fold. The “Fold less cytotoxic for fibroblasts (HDF) than for MDA-MB-231 cells” value in data set [3] (selectivity HDF vs MDA-MB-231) worked out at 1.5 fold. For the same compound, the “Pd amount in the membranes” value in data set [4] is “only residual”.
